In patent US20260216170A1, “TETRAHYDROISOQUINOLINE HETEROBIFUNCTIONAL BCL-XL DEGRADERS” (Treeline Biosciences, Inc., priority 2023, published 2026):

Target: T1, Human BCL-XL protein (N-terminal HiBiT tagged BCL-XL expressed in HT1080 cells) (Homo sapiens, UniProt Q07817)
T1 construct: expressed in transfected cells; host or cells: HT-1080 (ATCC CCL-121), stably transduced with lentivirus pLV-UBC-N-HiBiT-BCL-XL-PGK-puro and selected with puromycin
Experiment: HiBiT Based Degradation Assay
Format: cell-based
Settings: 24 hours incubation; for DC50: BCL-XL degradation, HT1080 cells expressing N-HiBiT-BCL-XL, normalized with DMSO control, geometric mean for multiple data points, read-out: EC50 (24 h); for Ymin (24 h): bottom of BCL-XL degradation curve (remaining HiBiT-BCL-XL signal vs DMSO control), HT1080 cells
Description: HiBiT Based Degradation Assay
Human BCL-XL protein coding open reading frame fused with N-terminal HiBiT coding sequence (N-HiBiT-BCL-XL) was synthesized from Integrated DNA Technologies (IDT). Next, N-HiBiT-BCL-XL sequence was cloned into pLV-UBC-PGK-Puro, a lentivirus plasmid purchased from Vectorbuilder, to generate pLV-UBC-N-HiBiT-BCL-XL-PGK-puro. Lentiviral particles were generated from Lenti-X™ 293T cells (Clontech) by co-transfection of pLV-UBC-N-HiBiT-BCL-XL-PGK-puro plasmids and lentiviral packaging plasmid mix (Cellecta). HT-1080 [HT1080](ATCC CCL-121™) cells were infected with the lentivirus, and HT1080 cells stably integrated with the lentiviral vector were established by incubation with 1 μg/mL puromycin (Thermofisher). HT1080 cells expressing N-terminal HiBiT tagged BCL-XL were dispensed into 384-well plates pre-spotted with compounds at varying concentrations. Three thousand cells were seeded into each well in 40 μL of RPMI 1640 media. After 24 hours of incubation at 37° C. with 5% CO2, 30 μL of the NANO-GLO® HiBiT Lytic Detection System working solution (Promega) was added to each well and incubated at room temperature for 30 min. After incubation, luminescence was read on a PHERAstar FSX Plate Reader (BMG). BCL-XL degradation at each indicated concentration was normalized with DMSO control. The BCL-XL degradation curves were plotted using a four-parameter logistic model. For compounds displaying hook effects, curve fitting was performed using bottom point of hook curves (i.e., the point of Ymin) as bottom plateau to calculate EC50. For compounds with multiple data points, the geometric mean is presented.

T1 sequence (Q07817 whole entry): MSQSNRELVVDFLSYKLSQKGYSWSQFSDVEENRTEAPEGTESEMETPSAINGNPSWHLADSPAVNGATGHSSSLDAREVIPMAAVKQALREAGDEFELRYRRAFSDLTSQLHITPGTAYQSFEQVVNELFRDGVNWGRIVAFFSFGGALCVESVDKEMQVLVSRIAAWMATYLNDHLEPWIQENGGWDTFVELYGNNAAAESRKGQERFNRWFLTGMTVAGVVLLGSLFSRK

SMILES	DC50 [nM]	Ymin (24 h)
Cc1c(OCCC2CC3(CCN(CC(=O)Nc4ccc5c(C6CCC(=O)NC6=O)nn(C)c5c4)CC3)C2)cccc1-c1ccc(N2CCc3cccc(C(=O)Nc4nc5ccccc5s4)c3C2)nc1C(=O)O (centres unmarked) [Compound 114, 6-(8-(benzo[d]thiazol-2-ylcarbamoyl)-3,4-dihydroisoquinolin-2(1H)-yl)-3-(3-(2-(7-(2-((3-(2,6-dioxopiperidin-3-yl)-1-methyl-1H-indazol-6-yl)amino)-2-oxoethyl)-7-azaspiro[3.5]nonan-2-yl)ethoxy)-2-methylphenyl)picolinic acid]	10 to 100	B (30% ≤ Ymin < 50%)
Cc1cc(OCCC2CC3(CCN(CC(=O)Nc4ccc5c(C6CCC(=O)NC6=O)nn(C)c5c4)CC3)C2)ccc1-c1ccc(N2CCc3cccc(C(=O)Nc4nc5ccccc5s4)c3C2)nc1C(=O)O (centres unmarked) [Compound 115, 6-(8-(benzo[d]thiazol-2-ylcarbamoyl)-3,4-dihydroisoquinolin-2(1H)-yl)-3-(4-(2-(7-(2-((3-(2,6-dioxopiperidin-3-yl)-1-methyl-1H-indazol-6-yl)amino)-2-oxoethyl)-7-azaspiro[3.5]nonan-2-yl)ethoxy)-2-methylphenyl)picolinic acid]	10 to 100	B (30% ≤ Ymin < 50%)
Cc1cc(OCCCCC2CCN(CC(=O)Nc3ccc4c(C5CCC(=O)NC5=O)nn(C)c4c3)CC2)ccc1-c1ccc(N2CCc3cccc(C(=O)Nc4nc5ccccc5s4)c3C2)nc1C(=O)O (centres unmarked) [Compound 116, 6-[8-(1,3-benzothiazol-2-ylcarbamoyl)-3,4-dihydro-1H-isoquinolin-2-yl]-3-[4-[4-[1-[2-[[3-(2,6-dioxo-3-piperidyl)-1-methyl-indazol-6-yl]amino]-2-oxo-ethyl]-4-piperidyl]butoxy]-2-methyl-phenyl]pyridine-2-carboxylic acid]	< 10	B (30% ≤ Ymin < 50%)
Cc1c(OCC2CC3(CCN(CC(=O)Nc4ccc5c(C6CCC(=O)NC6=O)nn(C)c5c4C)CC3)C2)cccc1-c1ccc(N2CCc3cccc(C(=O)Nc4nc5ccccc5s4)c3C2)nc1C(=O)O (centres unmarked) [Compound 117]	10 to 100	B (30% ≤ Ymin < 50%)
Cc1cc2c(C3CCC(=O)NC3=O)nn(C)c2cc1NC(=O)CN1CCC2(CC1)CC(COc1cccc(-c3ccc(N4CCc5cccc(C(=O)Nc6nc7ccccc7s6)c5C4)nc3C(=O)O)c1C)C2 (centres unmarked) [Compound 118]	100 to 1000	B (30% ≤ Ymin < 50%)
Cc1c(OC2CCC3(CC2)CCN(CC(=O)Nc2ccc4c(C5CCC(=O)NC5=O)nn(C)c4c2)CC3)cccc1-c1ccc(N2CCc3cccc(C(=O)Nc4nc5ccccc5s4)c3C2)nc1C(=O)O (centres unmarked) [Compound 119]	< 10	B (30% ≤ Ymin < 50%)
Cc1c(OCC2CC3(CCN(CC(=O)Nc4ccc5c(C6CCC(=O)NC6=O)nn(C)c5c4F)CC3)C2)cccc1-c1ccc(N2CCc3cccc(C(=O)Nc4nc5ccccc5s4)c3C2)nc1C(=O)O (centres unmarked) [Compound 120]	10 to 100	B (30% ≤ Ymin < 50%)
Cc1c(OCC2CC3(CCN(CC(=O)Nc4cc5c(cc4F)c(C4CCC(=O)NC4=O)nn5C)CC3)C2)cccc1-c1ccc(N2CCc3cccc(C(=O)Nc4nc5ccccc5s4)c3C2)nc1C(=O)O (centres unmarked) [Compound 121]	10 to 100	B (30% ≤ Ymin < 50%)
Cc1cc(OCC2CC3(CCN(CC(=O)Nc4ccc5c(C6CCC(=O)NC6=O)nn(C)c5c4F)CC3)C2)ccc1-c1ccc(N2CCc3cccc(C(=O)Nc4nc5ccccc5s4)c3C2)nc1C(=O)O (centres unmarked) [Compound 122, 6-(8-(benzo[d]thiazol-2-ylcarbamoyl)-3,4-dihydroisoquinolin-2(1H)-yl)-3-(4-((7-(2-((3-(2,6-dioxopiperidin-3-yl)-7-fluoro-1-methyl-1H-indazol-6-yl)amino)-2-oxoethyl)-7-azaspiro[3.5]nonan-2-yl)methoxy)-2-methylphenyl)picolinic acid]	10 to 100	B (30% ≤ Ymin < 50%)
Cc1cc(OCC2CC3(CCN(CC(=O)Nc4cc5c(cc4F)c(C4CCC(=O)NC4=O)nn5C)CC3)C2)ccc1-c1ccc(N2CCc3cccc(C(=O)Nc4nc5ccccc5s4)c3C2)nc1C(=O)O (centres unmarked) [Compound 123]	10 to 100	B (30% ≤ Ymin < 50%)
Cc1cc(OCC2CC3(CCN(CC(=O)Nc4ccc5c(C6CCC(=O)NC6=O)nn(C)c5c4C)CC3)C2)ccc1-c1ccc(N2CCc3cccc(C(=O)Nc4nc5ccccc5s4)c3C2)nc1C(=O)O (centres unmarked) [Compound 124, 6-(8-(benzo[d]thiazol-2-ylcarbamoyl)-3,4-dihydroisoquinolin-2(1H)-yl)-3-(4-((7-(2-((3-(2,6-dioxopiperidin-3-yl)-1,7-dimethyl-1H-indazol-6-yl)amino)-2-oxoethyl)-7-azaspiro[3.5]nonan-2-yl)methoxy)-2-methylphenyl)picolinic acid]	< 10	B (30% ≤ Ymin < 50%)
Cc1cc2c(C3CCC(=O)NC3=O)nn(C)c2cc1NC(=O)CN1CCC2(CC1)CC(COc1ccc(-c3ccc(N4CCc5cccc(C(=O)Nc6nc7ccccc7s6)c5C4)nc3C(=O)O)c(C)c1)C2 (centres unmarked) [Compound 125]	10 to 100	B (30% ≤ Ymin < 50%)
COc1cc2c(C3CCC(=O)NC3=O)nn(C)c2cc1NC(=O)CN1CCC2(CC1)CC(COc1cccc(-c3ccc(N4CCc5cccc(C(=O)Nc6nc7ccccc7s6)c5C4)nc3C(=O)O)c1C)C2 (centres unmarked) [Compound 126]	100 to 1000	C (50% ≤ Ymin < 70%)
COc1c(NC(=O)CN2CCC3(CC2)CC(COc2cccc(-c4ccc(N5CCc6cccc(C(=O)Nc7nc8ccccc8s7)c6C5)nc4C(=O)O)c2C)C3)ccc2c(C3CCC(=O)NC3=O)nn(C)c12 (centres unmarked) [Compound 127]	10 to 100	A (Ymin < 30%)
COc1c(NC(=O)CN2CCC3(CC2)CC(COc2ccc(-c4ccc(N5CCc6cccc(C(=O)Nc7nc8ccccc8s7)c6C5)nc4C(=O)O)c(C)c2)C3)ccc2c(C3CCC(=O)NC3=O)nn(C)c12 (centres unmarked) [Compound 128, 6-(8-(benzo[d]thiazol-2-ylcarbamoyl)-3,4-dihydroisoquinolin-2(1H)-yl)-3-(4-((7-(2-((3-(2,6-dioxopiperidin-3-yl)-7-methoxy-1-methyl-1H-indazol-6-yl)amino)-2-oxoethyl)-7-azaspiro[3.5]nonan-2-yl)methoxy)-2-methylphenyl)picolinic acid]	< 10	A (Ymin < 30%)
Cn1nc(C2CCC(=O)NC2=O)c2ccc(NC(=O)CN3CCC(CCCOc4ccc(-c5ccc(N6CCc7cccc(C(=O)Nc8nc9ccccc9s8)c7C6)nc5C(=O)O)c(C(F)(F)F)c4)CC3)cc21 (centres unmarked) [Compound 129, 6-(8-(benzo[d]thiazol-2-ylcarbamoyl)-3,4-dihydroisoquinolin-2(1H)-yl)-3-(4-(3-(1-(2-((3-(2,6-dioxopiperidin-3-yl)-1-methyl-1H-indazol-6-yl)amino)-2-oxoethyl)piperidin-4-yl)propoxy)-2-(trifluoromethyl)phenyl)picolinic acid]	< 10	B (30% ≤ Ymin < 50%)
Cn1nc(C2CCC(=O)NC2=O)c2ccc(NC(=O)CN3CCC4(CC3)CC(COc3ccc(-c5ccc(N6CCc7cccc(C(=O)Nc8nc9ccccc9s8)c7C6)nc5C(=O)O)c(C(F)(F)F)c3)C4)cc21 (centres unmarked) [Compound 131, 6-(8-(benzo[d]thiazol-2-ylcarbamoyl)-3,4-dihydroisoquinolin-2(1H)-yl)-3-(4-((7-(2-((3-(2,6-dioxopiperidin-3-yl)-1-methyl-1H-indazol-6-yl)amino)-2-oxoethyl)-7-azaspiro[3.5]nonan-2-yl)methoxy)-2-(trifluoromethyl)phenyl)picolinic acid]	< 10	B (30% ≤ Ymin < 50%)
Cn1nc(C2CCC(=O)NC2=O)c2ccc(NC(=O)CN3CCC4(CC3)CC(COc3cccc(-c5ccc(N6CCc7cccc(C(=O)Nc8nc9ccccc9s8)c7C6)nc5C(=O)O)c3C(F)(F)F)C4)cc21 (centres unmarked) [Compound 132, 6-(8-(benzo[d]thiazol-2-ylcarbamoyl)-3,4-dihydroisoquinolin-2(1H)-yl)-3-(3-((7-(2-((3-(2,6-dioxopiperidin-3-yl)-1-methyl-1H-indazol-6-yl)amino)-2-oxoethyl)-7-azaspiro[3.5]nonan-2-yl)methoxy)-2-(trifluoromethyl)phenyl)picolinic acid]	10 to 100	B (30% ≤ Ymin < 50%)
Cc1c(OCC2CC3(CCN(CC(=O)Nc4ccc5c(C6CCC(=O)NC6=O)nn(C)c5c4)CC3)C2)cccc1-c1ccc(N2CCc3ccnc(C(=O)Nc4nc5ccccc5s4)c3C2)nc1C(=O)O (centres unmarked) [Compound 134, 6-(8-(benzo[d]thiazol-2-ylcarbamoyl)-3,4-dihydro-2,7-naphthyridin-2(1H)-yl)-3-(3-((7-(2-((3-(2,6-dioxopiperidin-3-yl)-1-methyl-1H-indazol-6-yl)amino)-2-oxoethyl)-7-azaspiro[3.5]nonan-2-yl)methoxy)-2-methylphenyl)picolinic acid]	10 to 100	B (30% ≤ Ymin < 50%)
